In US20170333591A9, “ABSORBENT ARTICLE COMPRISING MALODOR REDUCTION COMPOSITIONS” (The Procter & Gamble Company, priority 2014, published 2017):

Experiment: Log of liquid dish neat product liquid-air partition coefficient
Assay type: physicochemical
Conditions: not given

SMILES	Comment Code: Log of liquid dish neat product liquid-air partition coefficient
CC1=CC(C)C2C(CCC(C)(C)C2O)C1 (stereo not shown) [Material 39]	K (Log of liquid dish neat product liquid-air partition coefficient greater than or equal to 7)
C=C(C)[C@@H]1CCC2=CC(=O)C[C@@H](C)[C@]2(C)C1 [Material 48]	K (Log of liquid dish neat product liquid-air partition coefficient greater than or equal to 7)
CC(C)=CCC/C(C)=C\COC=O [Material 59]	K (Log of liquid dish neat product liquid-air partition coefficient greater than or equal to 7)
CCC(C)(O)/C=C/C=C(C)C (stereo not shown) [Material 81]	K (Log of liquid dish neat product liquid-air partition coefficient greater than or equal to 7)
CCC(=O)OC(C)c1ccccc1 (stereo not shown) [Material 96]	K (Log of liquid dish neat product liquid-air partition coefficient greater than or equal to 7)
CCOc1cc(COC)ccc1O [Material 115]	K (Log of liquid dish neat product liquid-air partition coefficient greater than or equal to 7)
COC(C)(C)CCCC(C)C=O (stereo not shown) [Material 125]	K (Log of liquid dish neat product liquid-air partition coefficient greater than or equal to 7)
CC(C)C1CCC(CO)CC1 (stereo not shown) [Material 133]	K (Log of liquid dish neat product liquid-air partition coefficient greater than or equal to 7)
CC1OC(C)C2Cc3ccccc3C2O1 (stereo not shown) [Material 141]	K (Log of liquid dish neat product liquid-air partition coefficient greater than or equal to 7)
C=CC(C)(CCC=C(C)C)OC=O (stereo not shown) [Material 150]	K (Log of liquid dish neat product liquid-air partition coefficient greater than or equal to 7)
C=CC(C)(CCC=C(C)C)OC(=O)CCC (stereo not shown) [Material 151]	K (Log of liquid dish neat product liquid-air partition coefficient greater than or equal to 7)
C=CC(C)(CCC=C(C)C)OC(C)=O (stereo not shown) [Material 154]	K (Log of liquid dish neat product liquid-air partition coefficient greater than or equal to 7)

Same assay, conditions: code letter within the Comment Code cell

SMILES	Log of liquid dish neat product liquid-air partition coefficient (Comment Code K/L)
CCCCCCCCCCCCCC#N [Material 38]	K (Log of liquid dish neat product liquid-air partition coefficient greater than or equal to 7)
CC1=CC(C)C2C(CCC(C)(C)C2O)C1 (stereo not shown) [Material 39]	K (Log of liquid dish neat product liquid-air partition coefficient greater than or equal to 7)
C=CC(C)=CCCC(C)(C)O [Material 42]	K (Log of liquid dish neat product liquid-air partition coefficient greater than or equal to 7)
C=CC(C)=CCCC(C)(C)O [Material 43]	K (Log of liquid dish neat product liquid-air partition coefficient greater than or equal to 7)
CC(=O)OCCC1=CCC2CC1C2(C)C (stereo not shown) [Material 47]	K (Log of liquid dish neat product liquid-air partition coefficient greater than or equal to 7)
C=C(C)[C@@H]1CCC2=CC(=O)C[C@@H](C)[C@]2(C)C1 [Material 48]	K (Log of liquid dish neat product liquid-air partition coefficient greater than or equal to 7)
CC1CC=CCCCCCCCC(=O)OCC1 (stereo not shown) [Material 52]	K (Log of liquid dish neat product liquid-air partition coefficient greater than or equal to 7)
CCNC(=O)C1CC(C)CCC1C(C)C (stereo not shown) [Material 57]	K (Log of liquid dish neat product liquid-air partition coefficient greater than or equal to 7)
CC(=O)c1oc2ccccc2c1C [Material 61]	K (Log of liquid dish neat product liquid-air partition coefficient greater than or equal to 7)
C=CC(C)(O)CCC=C(C)CCC=C(C)C (stereo not shown) [Material 63]	K (Log of liquid dish neat product liquid-air partition coefficient greater than or equal to 7)
CC(C)=CCC/C(C)=C\CO [Material 64]	K (Log of liquid dish neat product liquid-air partition coefficient greater than or equal to 7)
CC1=CC2(C=CC(C)O2)C(C(C)C)CC1 (stereo not shown) [Material 68]	K (Log of liquid dish neat product liquid-air partition coefficient greater than or equal to 7)
CC1=CCC(C(C)CC2CCCC2=O)CC1 (stereo not shown) [Material 69]	K (Log of liquid dish neat product liquid-air partition coefficient greater than or equal to 7)
CC(=O)/C=C/C1C(C)CCC(C)C1(C)C (stereo not shown) [Material 71]	K (Log of liquid dish neat product liquid-air partition coefficient greater than or equal to 7)
CC(=O)OCC1CC=C(CCC=C(C)C)CC1 (stereo not shown) [Material 74]	K (Log of liquid dish neat product liquid-air partition coefficient greater than or equal to 7)
CC1CCCCCCCCCCCCC(=O)C1 (stereo not shown) [Material 79]	K (Log of liquid dish neat product liquid-air partition coefficient greater than or equal to 7)
CC1/C=C/CCCCCCCCCCC(=O)C1 (stereo not shown) [Material 80]	K (Log of liquid dish neat product liquid-air partition coefficient greater than or equal to 7)
CC(O)C(C)Cc1ccccc1 (stereo not shown) [Material 82]	K (Log of liquid dish neat product liquid-air partition coefficient greater than or equal to 7)
CC(C)C1CCC(C(C)O)CC1 (stereo not shown) [Material 83]	K (Log of liquid dish neat product liquid-air partition coefficient greater than or equal to 7)
CC(O)CCc1ccccc1 (stereo not shown) [Material 98]	K (Log of liquid dish neat product liquid-air partition coefficient greater than or equal to 7)
CCCCCCCCCC(C)C(OC)OC (stereo not shown) [Material 101]	K (Log of liquid dish neat product liquid-air partition coefficient greater than or equal to 7)
CCCCCCCCCC(C)C=O (stereo not shown) [Material 103]	K (Log of liquid dish neat product liquid-air partition coefficient greater than or equal to 7)

SMILES	Log of liquid dish neat product liquid-air partition coefficient (Comment Code K/L)
CCCCCCCCCCCCCC(=O)OC [Material 104]	K (Log of liquid dish neat product liquid-air partition coefficient greater than or equal to 7)
CCCCCCC(CO)C(C)=O (stereo not shown) [Material 106]	K (Log of liquid dish neat product liquid-air partition coefficient greater than or equal to 7)
CC=Cc1ccc(OC)c(OC)c1 [Material 108]	K (Log of liquid dish neat product liquid-air partition coefficient greater than or equal to 7)
CCCCCCCCCCCCCCCC(=O)OC [Material 109]	K (Log of liquid dish neat product liquid-air partition coefficient greater than or equal to 7)
C=CCc1ccc(OC)c(OC)c1 [Material 110]	K (Log of liquid dish neat product liquid-air partition coefficient greater than or equal to 7)
CCC=CCC1C(=O)CCC1CC(=O)OC (stereo not shown) [Material 112]	K (Log of liquid dish neat product liquid-air partition coefficient greater than or equal to 7)
CCCCCC1C(=O)CCC1CC(=O)OC (stereo not shown) [Material 113]	K (Log of liquid dish neat product liquid-air partition coefficient greater than or equal to 7)
Cc1cccc(Oc2ccccc2)c1 [Material 114]	K (Log of liquid dish neat product liquid-air partition coefficient greater than or equal to 7)
COC(=O)C=Cc1ccccc1 [Material 117]	K (Log of liquid dish neat product liquid-air partition coefficient greater than or equal to 7)
C=CCc1ccc(OC)cc1 [Material 119]	K (Log of liquid dish neat product liquid-air partition coefficient greater than or equal to 7)
CC(=O)c1ccc2ccccc2c1 [Material 120]	K (Log of liquid dish neat product liquid-air partition coefficient greater than or equal to 7)
COC(C)(C)CCCC(C)CC=O (stereo not shown) [Material 126]	K (Log of liquid dish neat product liquid-air partition coefficient greater than or equal to 7)
CC(C=O)Cc1cccc(C(C)(C)C)c1 (stereo not shown) [Material 134]	K (Log of liquid dish neat product liquid-air partition coefficient greater than or equal to 7)
CC(C)=CCCC(C)=CCCc1ccncc1 [Material 135]	K (Log of liquid dish neat product liquid-air partition coefficient greater than or equal to 7)
C=CCCCCCCCC=CCC#N [Material 137]	K (Log of liquid dish neat product liquid-air partition coefficient greater than or equal to 7)
Cc1cccc(CC(C)(C)CO)c1 [Material 140]	K (Log of liquid dish neat product liquid-air partition coefficient greater than or equal to 7)
CC1OC(C)C2Cc3ccccc3C2O1 (stereo not shown) [Material 141]	K (Log of liquid dish neat product liquid-air partition coefficient greater than or equal to 7)
CC1=CC2CC(C=O)C1CC2C(C)C (stereo not shown) [Material 142]	K (Log of liquid dish neat product liquid-air partition coefficient greater than or equal to 7)
CC/C=C\CCC1=CCCC1=O [Material 146]	K (Log of liquid dish neat product liquid-air partition coefficient greater than or equal to 7)
C=CC(C)(CCC=C(C)C)OC(=O)C(C)C (stereo not shown) [Material 149]	K (Log of liquid dish neat product liquid-air partition coefficient greater than or equal to 7)
C=CC1(C)CCC(C(C)(C)O)O1 (stereo not shown) [Material 155]	K (Log of liquid dish neat product liquid-air partition coefficient greater than or equal to 7)
